Like-named read-outs stand apart in the source and are kept apart here.
Columns and labels:
KB-8-5 (MDR1+) = test: Cell survival assay (SRB), KB-8-5 (MDR1+); settings: for IC50: Homo sapiens, MDR1, read-out: In vitro IC50 (nM) KB85
KB-3-1 = test: Cell survival assay (SRB), KB-3-1; assay type: cell-based, human; settings: Homo sapiens, KB 3-1, KB-3-1 cells (paclitaxel-sensitive parent); read-out: In vitro IC50 (nM) KB-3-1
How it was run: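 Growth inhibition (IC50) is derived from SRB-measured protein content after a 3-day, duplicate exposure to serially diluted compound.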

KB-V1 (MDR1++) = test: Cell survival assay (SRB), KB-V1 (MDR1++); settings: for IC50: Homo sapiens
[1] = read-out: In vitro IC50 (nM) KBV1

SMILES	Ratio KB85/KB (KB-8-5 (MDR1+))	IC50 (KB-8-5 (MDR1+))	IC50 (KB-3-1)	Ratio KBV1/KB (KB-V1 (MDR1++))	IC50 (KB-V1 (MDR1++); [1])	IC50 (KB-V1 (MDR1++); read-out: In vitro IC50 KBV1)
CCCCCC(C)(C)[C@H](NC)C(=O)N[C@H](C(=O)N(C)[C@H](/C=C(\C)C(=O)O)C(C)C)C(C)(C)C [Example 50, (2E,4S)-4-[((2S)-2-{[(2S)-3,3-dimethyl-2-(methylamino)octanoyl]amino}-3,3-dimethylbutanoyl)(methyl)amino]-2,5-dimethyl-2-hexenoic acid]	2.2	19 nM	8.7 nM	58.9	513 nM	–
CCCCCC(C)(C)[C@@H](NC)C(=O)N[C@H](C(=O)N(C)[C@H](/C=C(\C)C(=O)O)C(C)C)C(C)(C)C [Example 51, (2E,4S)-4-[((2S)-2-{[(2R)-3,3-dimethyl-2-(methylamino)octanoyl]amino}-3,3-dimethylbutanoyl)(methyl)amino]-2,5-dimethyl-2-hexenoic Acid]	1.6	363 nM	224 nM	13.4	≥ 3000 nM	–
C/C(=C\[C@H](C(C)C)N(C)C(=O)[C@@H](NC(=O)[C@@H](N(C)CCO)C(C)(C)c1ccccc1)C(C)(C)C)C(=O)O [Example 53, N-(2-hydroxyethyl)-N,β,β-trimethyl-L-phenylalanyl-N^1-[(1S,2E)-3-carboxy-1-isopropylbut-2-enyl]-N^1,3-dimethyl-L-valinamide]	1.4	61.7 nM	44.7 nM	67.1	≥ 3000 nM	–
CCOC(=O)/C(C)=C/[C@H](C(C)C)N(C)C(=O)[C@@H](NC(=O)[C@@H](NC)C(C)(C)c1ccccc1OC)C(C)(C)C [Example 54, 2-Methoxy-N,β,β-trimethyl-L-phenylalanyl-N^1-[(1S,2E)-4-ethoxy-1-isopropyl-3-methyl-4-oxo-2-butenyl]-N^1,3-dimethyl-L-valinamide]	4.8	602 nM	126 nM	16.6	2090 nM	–
CN[C@H](C(=O)N[C@H](C(=O)N(C)[C@H](/C=C(\C)C(=O)O)C(C)C)C(C)(C)C)C(C)(C)c1ccccc1OC [Example 55, 2-Methoxy-N,β,β-trimethyl-L-phenylalanyl-N^1-[(1S,2E)-3-carboxy-1-isopropyl-2-butenyl]-N^1,3-dimethyl-L-valinamide]	2.6	4.4 nM	1.7 nM	112.1	190 nM	–
CCOC(=O)/C(C)=C/[C@H](C(C)C)N(C)C(=O)[C@@H](NC(=O)[C@@H](NC)C(C)(C)c1ccc(OC)cc1)C(C)(C)C [Example 56, N,O,β,β-tetramethyl-L-tyrosyl-N^1-[(1S,2E)-4-ethoxy-1-isopropyl-3-methyl-4-oxo-2-butenyl]-N^1,3-dimethyl-L-valinamide]	18.2	479 nM	26.3 nM	67.6	1780 nM	–
CCOC(=O)/C(C)=C/[C@H](C(C)C)N(C)C(=O)[C@@H](NC(=O)[C@@H](NC)C(C)(C)c1ccc(OC)cc1OC)C(C)(C)C [Example 58, 2-Methoxy-N,O,β,β,tetramethyl-L-tyrosyl-N^1-[(1S,2E)-4-ethoxy-1-isopropyl-3-methyl-4-oxo-2-butenyl]-N^1,3-dimethyl-L-valinamide]	11.7	1700 nM	144 nM	20.8	≥ 3000 nM	–
CN[C@H](C(=O)N[C@H](C(=O)N(C)[C@H](/C=C(\C)C(=O)O)C(C)C)C(C)(C)C)C(C)(C)c1ccc(OC)cc1OC [Example 59, 2-Methoxy-N,O,β,β-tetramethyl-L-tyrosyl-N^1-[(1S,2E)-3-carboxy-1-isopropyl-2-butenyl]-N^1,3-dimethyl-L-valinamide]	5.5	13.2 nM	2.4 nM	446.7	1070 nM	–
CN[C@H](C(=O)N[C@H](C(=O)N(C)[C@H](/C=C(\C)C(=O)O)C(C)C)C(C)(C)C)C(C)(C)c1cccc(F)c1 [Example 60, 3-Fluoro-N,β,β-trimethyl-L-phenylalanyl-N^1-[(1S,2E)-3-carboxy-1-isopropyl-2-butenyl]-N^1,3-dimethyl-L-valinamide]	1.8	1.8 nM	0.997 nM	77.4	77 nM	–
CN[C@@H](C(=O)N[C@H](C(=O)N(C)[C@H](/C=C(\C)C(=O)O)C(C)C)C(C)(C)C)C(C)(C)c1cccc(F)c1 [Example 61, 3-Fluoro-N,β,β-trimethyl-D-phenylalanyl-N^1-[(1S,2E)-3-carboxy-1-isopropyl-2-butenyl]-N^1,3-dimethyl-L-valinamide]	1.5	18.6 nM	12.6 nM	79.4	1000 nM	–
CN[C@@H](C(=O)N[C@H](C(=O)N(C)[C@H](/C=C(\C)C(=O)O)C(C)C)C(C)(C)C)C(C)(C)c1cccc(C(F)(F)F)c1 [Example 63, N,β,β-Trimethyl-3-(trifluoromethyl)-D-phenylalanyl-N^1-[(1S,2E)-3-carboxy-1-isopropyl-2-butenyl]-N^1,3-dimethyl-L-valinamide]	2.4	45.7 nM	19.1 nM	69.0	1320 nM	–
CN[C@H](C(=O)N[C@H](C(=O)N(C)[C@H](/C=C(\C)C(=O)O)C(C)C)C(C)(C)C)C(C)(C)c1cc(F)cc(F)c1 [Example 64, 3,5-Difluoro-N,β,β-trimethyl-L-phenylalanyl-N^1-[(1S,2E)-3-carboxy-1-isopropylbut-2-enyl]-N^1,3-dimethyl-L-valinamide]	2.6	16.2 nM	6.2 nM	73.7	457 nM	–
CN[C@H](C(=O)N[C@H](C(=O)N(C)[C@H](/C=C(\C)C(=O)O)C(C)C)C(C)(C)C)C(C)(C)c1cc(C(F)(F)F)cc(C(F)(F)F)c1 [Example 66, N,β,β-trimethyl-3,5-bis(trifluoromethyl)-L-phenylalanyl-N^1-[(1S,2E)-3-carboxy-1-isopropylbut-2-enyl]-N^1,3-dimethyl-L-valinamide]	1.1	19 nM	17 nM	26.9	457 nM	–
CN[C@@H](C(=O)N[C@H](C(=O)N(C)[C@H](/C=C(\C)C(=O)O)C(C)C)C(C)(C)C)C(C)(C)c1cc(C(F)(F)F)cc(C(F)(F)F)c1 [Example 67, N,β,β-trimethyl-3,5-bis(trifluoromethyl)-D-phenylalanyl-N^1-[(1S,2E)-3-carboxy-1-isopropylbut-2-enyl]-N^1,3-dimethyl-L-valinamide]	1.1	186 nM	170 nM	–	–	> 3000 nM
CN[C@H](C(=O)N[C@H](C(=O)N(C)[C@H](/C=C(\C)C(=O)O)C(C)C)C(C)(C)C)C(C)(C)c1ccc(OC(C)C)cc1 [Example 68, O-isopropyl-N,β,β-trimethyl-L-tyrosyl-N^1-[(1S,2E)-3-carboxy-1-isopropylbut-2-enyl]-N^1,3-dimethyl-L-valinamide]	2.9	4.3 nM	1.5 nM	47.2	70.8 nM	–
CN[C@H](C(=O)N[C@H](C(=O)N(C)[C@H](/C=C(\C)C(=O)O)C(C)C)C(C)(C)C)C1(c2ccccc2)CCCC1 [Example 71, (2E,4S)-2,5-dimethyl-4-(methyl{3-methyl-N-[(2S)-2-(methylamino)-2-(1-phenylcyclopentyl)ethanoyl]-L-valyl}amino)-2-hexenoic acid]	1.3	186 nM	141 nM	21.2	≥ 3000 nM	–
CN[C@@H](C(=O)N[C@H](C(=O)N(C)[C@H](/C=C(\C)C(=O)O)C(C)C)C(C)(C)C)C1(c2ccccc2)CCCC1 [Example 72, (2E,4S)-2,5-dimethyl-4-(methyl{3-methyl-N-[(2R)-2-(methylamino)-2-(1-phenylcyclopentyl)ethanoyl]-L-valyl}amino)-2-hexenoic Acid]	1.1	63.1 nM	59.3 nM	45.0	2660 nM	–
CNC(C(=O)N[C@H](C(=O)N(C)[C@@H](/C=C(\C)C(=O)O)C(C)C)C(C)(C)C)C1(c2ccccc2)CCCCC1 (stereo partly drawn) [Example 73, (2E,4R)-2,5-dimethyl4-(methyl{3-methyl-N-[(methylamino)(1-phenylcyclohexyl)acetyl]-L-valyl}amino)-2-hexenoic Acid]	1.8	363 nM	204 nM	14.7	≥ 3000 nM	–
CCCC[C@@H](/C=C(\C)C(=O)O)N(C)C(=O)[C@@H](NC(=O)[C@@H](NC)C(C)(C)c1ccccc1)C(C)(C)C [Example 75, N,β,β-Trimethyl-L-phenylalanyl-N^1-[(1S,2E)-1-butyl-3-carboxybut-2-enyl]-N^1,3-dimethyl-L-valinamide]	2.2	78 nM	36 nM	60.0	2130 nM	–
CC/C(=C\[C@H](CC(C)C)N(C)C(=O)[C@@H](NC(=O)[C@@H](NC)C(C)(C)c1ccccc1)C(C)(C)C)C(=O)O [Example 76, N,β,β-Trimethyl-L-phenylalanyl-N^1-[(1S,2E)-3-carboxy-1-isobutyl-2-pentenyl]-N^1,3-dimethyl-L-valinamide]	2.4	169 nM	70.8 nM	42.4	≥ 3000 nM	–
